According to the supplement of paper PMC13380429:
± gives the standard deviation of the averaged measurements.

Legend:
Details in all cases: 72 h
Caco-2 [1] = experiment: relative viability EC50 (midpoint between 100% and the lowest measured viability); higher = less toxic
Vero E6 [2] = experiment: as above
Calu-3 [3] = experiment: as above
HepG2 [4] = experiment: as above
Caco-2 [5] = experiment: drug sensitivity score (DSS) for viability; higher = more toxic; extreme values may be limits of the assay
Vero E6 [6] = experiment: as above
Calu-3 [7] = experiment: as above
HepG2 [8] = experiment: as above
Caco-2 [9] = experiment: cell viability relative to DMSO; higher = less toxic
Vero E6 [10] = experiment: as above
Calu-3 [11] = experiment: as above
HepG2 [12] = experiment: as above
U2OS [13] = experiment: relative viability EC50 (midpoint between 100% and the lowest measured viability); higher = less toxic
U2OS [14] = experiment: drug sensitivity score (DSS) for viability; higher = more toxic; extreme values may be limits of the assay
U2OS [15] = experiment: cell viability relative to DMSO; higher = less toxic

Row | SMILES | relative viability EC50 (Caco-2 [1]) | relative viability EC50 (Vero E6 [2]) | relative viability EC50 (Calu-3 [3]) | relative viability EC50 (HepG2 [4]) | drug sensitivity score (Caco-2 [5]) | drug sensitivity score (Vero E6 [6]) | drug sensitivity score (Calu-3 [7]) | drug sensitivity score (HepG2 [8]) | cell viability (Caco-2 [9]; 1 nM) | cell viability (Caco-2 [9]; 10 nM) | cell viability (Caco-2 [9]; 100 nM) | cell viability (Caco-2 [9]; 1000 nM) | cell viability (Caco-2 [9]; 10000 nM) | cell viability (Vero E6 [10]; 1 nM) | cell viability (Vero E6 [10]; 10 nM) | cell viability (Vero E6 [10]; 100 nM) | cell viability (Vero E6 [10]; 1000 nM) | cell viability (Vero E6 [10]; 10000 nM) | cell viability (Calu-3 [11]; 1 nM) | cell viability (Calu-3 [11]; 10 nM) | cell viability (Calu-3 [11]; 100 nM) | cell viability (Calu-3 [11]; 1000 nM) | cell viability (Calu-3 [11]; 10000 nM) | cell viability (HepG2 [12]; 1 nM) | cell viability (HepG2 [12]; 10 nM) | cell viability (HepG2 [12]; 100 nM) | cell viability (HepG2 [12]; 1000 nM) | cell viability (HepG2 [12]; 10000 nM) | relative viability EC50 (U2OS [13]) | drug sensitivity score (U2OS [14]) | cell viability (U2OS [15]; 1 nM) | cell viability (U2OS [15]; 10 nM) | cell viability (U2OS [15]; 100 nM) | cell viability (U2OS [15]; 1000 nM) | cell viability (U2OS [15]; 10000 nM)
1 | C#C[C@]1(O)CC[C@H]2[C@@H]3CCC4=CC(=O)CC[C@@H]4[C@H]3CC[C@@]21C [Norethindrone (Norethisterone)] | > 10 µM | > 10 µM | > 10 µM | > 10 µM | 0 | 0 | 0 | 0 | 94% | 103% | 97% | 101% | 116% | 98.4% | 97.4% | 94.6% | 93.6% | 109% | 103% | 105% | 93.9% | 110% | 99.9% | 103% | 89.5% | 94.1% | 100% | 114% |  |  |  |  |  |  | 
2 | COc1cc(OCc2cccc(-c3ccccc3)c2C)cc(OC)c1CN1CCCC[C@H]1C(=O)O [PD1-PDL-inhibitor-1] | > 10 µM | > 10 µM | > 10 µM |  | 0 | 0 | 0 |  | 104% | 94.5% | 94.4% | 96.3% | 102% | 99.5% | 106% | 99.3% | 105% | 103% | 98.2% | 99.1% | 98.1% | 102% | 102% |  |  |  |  |  | > 10 µM | 0 | 99.3% | 98.7% | 101% | 99% | 95.8%
3 | CN(C)c1ccc(/C=C2\C(=O)Nc3ccccc32)cc1 [SU4312] | > 10 µM | > 10 µM | > 10 µM |  | 1.2 | 0 | 0 | 2 | 96.3% | 106% | 97.5% | 90.6% | 79.6% | 106% | 99.6% | 103% | 103% | 89.3% | 97.7% | 94.3% | 96.4% | 88.4% | 91.8% | 96% | 92.4% | 95.1% | 69.5% | 89.7% | > 10 µM | 0 | 99.3% | 105% | 94.8% | 96.9% | 90%
4 | C[C@]12N[C@H](Cc3ccccc31)c1ccccc12 [dizocilpine-(-)] | > 10 µM | > 10 µM | > 10 µM |  | 0 | 0 | 0 | 1.85 ± 2.6 | 98.7 ± 0.42% | 94.5 ± 1.2% | 97.7 ± 1.8% | 102 ± 6.2% | 99.5 ± 5% | 95.8% | 97.2% | 101% | 93% | 97% | 97.8 ± 11% | 96.6 ± 3% | 101 ± 7.7% | 96.8 ± 6.1% | 98.5 ± 11% | 99.4 ± 0.28% | 97.7 ± 4.1% | 102 ± 9.9% | 95 ± 4.2% | 73.8 ± 28% | > 10 µM | 0 | 98.1 ± 5.1% | 104 ± 3.2% | 97.4 ± 1.7% | 100.7 ± 0.92% | 95.4 ± 1.4%
5 | CCC1(C2=NCCN2)Cc2ccccc2O1 (stereo not drawn) [efaroxan] | > 10 µM | > 10 µM | > 10 µM |  | 0 | 0 | 0 |  | 102% | 96.7% | 97.1% | 90.4% | 98.7% | 102% | 101% | 101% | 98.4% | 106% | 109% | 93.4% | 109% | 101% | 110% |  |  |  |  |  | > 10 µM | 0 | 107% | 107% | 101% | 95.8% | 101%
6 | C[C@H](N[C@@H](CCc1ccccc1)C(=O)O)C(=O)N1CCC[C@H]1C(=O)O [enalaprilat] | > 10 µM | > 10 µM | > 10 µM |  | 0 | 0 | 0.2 |  | 92.8% | 104% | 90.1% | 97.5% | 94.7% | 97.5% | 94.5% | 99.1% | 101% | 107% | 101% | 101% | 105% | 89% | 97.2% |  |  |  |  |  | > 10 µM | 0 | 96.5% | 97.9% | 94.9% | 96.7% | 104%
7 | O=C1[C@H](CC[C@H](O)c2ccc(F)cc2)[C@@H](c2ccc(O)cc2)N1c1ccc(F)cc1 [ezetimibe] | > 10 µM | > 10 µM |  | > 10 µM | 0 | 0 |  | 0.2 | 97.6% | 98.1% | 93.3% | 95.9% | 88.9% | 99.6% | 106% | 100% | 100% | 107% |  |  |  |  |  | 103% | 96.6% | 100% | 90.8% | 88.8% | > 10 µM | 0 | 95.9% | 101% | 95.8% | 104% | 91%
8 | O=C(O)Cc1sc(-c2ccccc2)nc1-c1ccc(Cl)cc1 [fentiazac] | > 10 µM | > 10 µM |  | > 10 µM | 0 | 0 |  | 0 | 100% | 98.9% | 92.6% | 97.6% | 95.3% | 99.3% | 101% | 96% | 99.7% | 92.2% |  |  |  |  |  | 95.3% | 103% | 97.6% | 103% | 94.9% | > 10 µM | 0 | 99% | 98.7% | 95.2% | 93.9% | 92.4%
9 | N=C(N)c1ccc(-c2ccc(-c3ccc(C(=N)N)cc3)o2)cc1 [furamidine] | > 10 µM | > 10 µM | > 10 µM |  | 0 | 0 | 0 | 4.1 | 97% | 92.8% | 98.1% | 101% | 95% | 99.7% | 97.3% | 97.9% | 97.8% | 102% | 92.6% | 104% | 97.1% | 96.4% | 110% | 109% | 97.2% | 96.4% | 79.9% | 59.7% |  |  |  |  |  |  | 
10 | CCOC(=O)c1ccc(OC(=O)CCCCCNC(=N)N)cc1 [gabexate] | > 10 µM | > 10 µM | > 10 µM | > 10 µM | 0 | 0 | 1.4 | 0 | 94.2% | 95.6% | 99.2% | 95.2% | 89.4% | 101% | 104% | 98% | 98.4% | 100% | 88.1% | 95.9% | 84.8% | 86.9% | 87.1% | 97.1% | 115% | 96.9% | 95.6% | 103% |  |  |  |  |  |  | 
11 | O=C(CC1NCCCC1O)Cn1cnc2cc(Br)c(Cl)cc2c1=O (stereo not drawn) [halofuginone] | 0.183 µM | 0.0842 µM |  | 0.0439 µM | 15.7 | 24.5 |  | 27.9 | 95% | 107% | 81.7% | 28.6% | 25.1% | 99.7% | 100% | 42% | 11.4% | 0% |  |  |  |  |  | 102% | 88.9% | 24.1% | 2.9% | 0.6% | 0.678 µM | 13.4 | 98.9% | 101% | 98.1% | 32.2% | 1.9%
12 | CCS(=O)(=O)Nc1ccc2c(c1)/C(=C(/Nc1ccc(CN3CCCCC3)cc1)c1ccccc1)C(=O)N2 [hesperadin] | 0.512 µM | 1.52 µM |  | 0.119 µM | 6.9 | 7.6 | 6.8 | 21.5 | 95.1% | 91.8% | 90.7% | 68.7% | 48.4% | 92.7% | 101% | 82.7% | 73.2% | 16.9% | 107% | 95.7% | 84.8% | 70.3% | 62.1% | 99.1% | 94.4% | 58.8% | 8.8% | 5.1% | 0.329 µM | 16.9 | 102% | 94.3% | 80% | 22.1% | 0%
13 | CC[C@H]1CN2CC[C@H]1C[C@@H]2[C@@H](O)c1ccnc2ccc(OC)cc12 [hydroquinidine] | > 10 µM | > 10 µM |  | > 10 µM | 0.1 | 0 |  | 0 | 105% | 106% | 94.6% | 94.7% | 87.4% | 97.4% | 102% | 103% | 107% | 91% |  |  |  |  |  | 91.7% | 95.1% | 101% | 89.1% | 93.1% | > 10 µM | 0 | 99.9% | 99.4% | 97.3% | 97.8% | 98.6%
14 | O=C(O)c1c(Sc2ccccc2)c2cc(Cl)ccc2n1Cc1ccc(Cl)cc1 [nTZDpa] | > 10 µM | > 10 µM |  | > 10 µM | 0 | 0 |  | 0 | 97.1% | 97% | 105% | 96.6% | 90.4% | 99.6% | 96% | 99.5% | 95.4% | 89.8% |  |  |  |  |  | 96.9% | 92.1% | 96.8% | 97.3% | 90.7% | > 10 µM | 0 | 96.6% | 101% | 92.1% | 96.2% | 101%
15 | Cc1ccnc2c1NC(=O)c1cccnc1N2C1CC1 [nevirapine] | > 10 µM | > 10 µM | > 10 µM |  | 0 | 0 | 0.2 |  | 87.3% | 86.8% | 101% | 97% | 100% | 94.3% | 107% | 96.5% | 104% | 108% | 104% | 90.6% | 109% | 96.8% | 87.8% |  |  |  |  |  | > 10 µM | 0 | 97.2% | 101% | 101% | 101% | 98.9%
16 | NCCCCN [putrescine] | > 10 µM | > 10 µM |  | > 10 µM | 0.2 | 0 |  | 0 | 118% | 102% | 102% | 89% | 93.1% | 104% | 112% | 100% | 98.1% | 90.4% |  |  |  |  |  | 110% | 101% | 110% | 97.3% | 93% | > 10 µM | 0 | 99.2% | 97.1% | 97.6% | 93.6% | 96.7%
17 | CC(C)(C)NCC(O)c1ccccc1Cl (stereo not drawn) [tulobuterol] | > 10 µM | > 10 µM | > 10 µM |  | 0 | 0.3 | 0 |  | 93.7% | 89.8% | 88.1% | 79.8% | 95.6% | 96.9% | 98.2% | 99.7% | 96.2% | 87% | 94.6% | 91.1% | 99.4% | 111% | 88.4% |  |  |  |  |  | > 10 µM | 0 | 99.7% | 95.5% | 102% | 101% | 98.6%
